# Literature values, collected in patent US20130224268A1, “TOPICAL DELIVERY OF HORMONAL AND NON HORMONAL NANO FORMULATIONS, METHODS OF MAKING AND USING THE SAME” (NEWGEN BIOPHARMA CORP., priority 2012, published 2013).
# System: hydroxyproline, a major constituent amino acid in collagen
# Conditions: topical estradiol treatment
structure (smiles),measurement,value
"C[C@]12CC[C@@H]3c4ccc(O)cc4CC[C@H]3[C@@H]1CC[C@@H]2O [estradiol, (17β)-estra-1,3,5(10)-triene-3,17-diol]",increase in hydroxyproline,38%
